Among the data in patent publication US11666658B2, “Rifamycin analogs and antibody-drug conjugates thereof” (Regeneron Pharmaceuticals, Inc., priority 2018, dated 2023) are MIC values, retold here.

The test system of assay [1] is intracellular S. aureus NRS384 in THP-1 macrophages. Nature of the assay: Intracellular killing assay 2 (rifamycin analogs, S. aureus in THP-1 macrophages). The format is cell-based, Staphylococcus aureus. The settings on record: Staphylococcus aureus, NRS384, 2 h; lowest concentration giving intracellular S. aureus below limit of detection (50 cfu/mL) in THP-1 macrophages; median of at least two experiments; read-out: S. aureus Intracellular killing MIC. How it is done:
THP-1 monocytic cell line was grown in media (RMPI+10% FBS+1% Penicillin/Streptomycin), then seeded at a density of 1e5 cells/well in a 96 well plate and differentiated into macrophages for three days prior to infection using 200 nM PMA. An overnight culture of S. aureus NRS384 was grown in RPMI, washed twice with PBS and resuspended at 1e7 cfu/mL in PBS. THP-1 were washed with warm media (RMPI without FBS) to remove the Penicillin/Streptomycin and then infected with the S. aureus suspension at a multiplicity of infection of 10:1 (S. aureus: macrophages). Plates were spun at 300×g for 5 minutes to synchronize adhesion of the bacteria, then incubated at 37° C. for 2 hours. Free-floating bacteria were removed by washing 2× with warm media and remaining extracellular S. aureus were killed by addition of media containing gentamicin (50 ug/mL). […] The compounds were added in media containing 50 µg/mL gentamicin to prevent extracellular growth of S. aureus. After 2 hours, plates were washed 2× with warm RPMI without FBS, and 100 ul of THP-1 lysis buffer (0.1% Triton in PBS) was added to each well. S. aureus survival was enumerated by colony forming units through serial dilution and plating onto TSA.
The intracellular MIC value indicated represents the median value of at least two independent experiments, unless indicated otherwise.

For the next assay, the system named is S. aureus NRS384. In words: Broth minimum inhibitory concentration (MIC) assay 2. The format is cell-based, Staphylococcus aureus. The following applies: Staphylococcus aureus; S. aureus NRS384 in TSB, 24 hours at 37° C., OD600; median of at least two independent experiments; read-out: S. aureus Broth MIC. How it is done:
To test the potency of rifamycin analogs of the disclosure in vitro, a broth growth inhibition assay was developed. For the assay, S. aureus NRS384 was grown in Tryptic Soy Broth (TSB) overnight, then sub-cultured 1:50 in fresh TSB and grown for an additional two hours. The culture was then pelleted via centrifugation and washed twice in PBS. The culture was then diluted to 1×10^6 cfu/mL in TSB and 100 μL of the suspension was added per well to a 2 mL dilution plate in triplicate. […] The plates were sealed and incubated at 37° C. with shaking for 24 hours, then 150 μL of each sample was added to 96 well microtiter plates and the OD600 nm was read on a Spectramax i3 Minimax 300.
The broth MIC experiments were assessed in at least two independent experiments and the median value is captured below unless indicated otherwise.

Structures are written as SMILES. Converted amounts (≈) assume the structure as drawn.

Regarding `CO[C@H]1/C=C/O[C@@]2(C)Oc3c(C)c(O)c4c(=O)c(c5oc6cc(OC7CCN(C)CC7)ccc6nc-5c4c3C2=O)NC(=O)/C(C)=C\C=C\[C@H](C)[C@H](O)[C@@H](C)[C@@H](O)[C@@H](C)[C@H](OC(C)=O)[C@@H]1C` [Analog 17], the figures for the MIC (in assay [1]; with S. aureus NRS384) were 0.2 µM (≈ 0.18 µg/mL) and 0.0156 µM (≈ 0.014 µg/mL), respectively.
For `CO[C@H]1/C=C/O[C@@]2(C)Oc3c(C)c(O)c4c(=O)c(c5oc6cc(OCCN(C)C)cc(O)c6nc-5c4c3C2=O)NC(=O)/C(C)=C\C=C\[C@H](C)[C@H](O)[C@@H](C)[C@@H](O)[C@@H](C)[C@H](OC(C)=O)[C@@H]1C` [Analog 29] the same measures were 0.04 µM (≈ 0.0355 µg/mL) and 0.00391 µM (≈ 0.00347 µg/mL).
For `CO[C@H]1/C=C/O[C@@]2(C)Oc3c(C)c(O)c4c(=O)c(c5oc6cc(OCC7CCN(C)C7)cc(O)c6nc-5c4c3C2=O)NC(=O)/C(C)=C\C=C\[C@H](C)[C@H](O)[C@@H](C)[C@@H](O)[C@@H](C)[C@H](OC(C)=O)[C@@H]1C` (stereo partly shown) [Analog 29a], in that order: 0.04 µM (≈ 0.0366 µg/mL) and 0.00391 µM (≈ 0.00357 µg/mL).
`CO[C@H]1/C=C/O[C@@]2(C)Oc3c(C)c(O)c4c(=O)c(c5oc6cc(OCC7CCN(C)CC7)cc(O)c6nc-5c4c3C2=O)NC(=O)/C(C)=C\C=C\[C@H](C)[C@H](O)[C@@H](C)[C@@H](O)[C@@H](C)[C@H](OC(C)=O)[C@@H]1C` [Analog 29b]: the figures for the MIC (in assay [1]; with S. aureus NRS384) were 0.04 µM (≈ 0.0371 µg/mL) and 0.00391 µM (≈ 0.00363 µg/mL), respectively.
For `CO[C@H]1/C=C/O[C@@]2(C)Oc3c(C)c(O)c4c(=O)c(c5oc6cc(OCCN7CCCC7)cc(O)c6nc-5c4c3C2=O)NC(=O)/C(C)=C\C=C\[C@H](C)[C@H](O)[C@@H](C)[C@@H](O)[C@@H](C)[C@H](OC(C)=O)[C@@H]1C` [Analog 29c], in that order: 0.04 µM (≈ 0.0366 µg/mL) and 0.00391 µM (≈ 0.00357 µg/mL).
For `CO[C@H]1/C=C/O[C@@]2(C)Oc3c(C)c(O)c4c(=O)c(c5oc6cc(OCCN7CC8CCC7C8)cc(O)c6nc-5c4c3C2=O)NC(=O)/C(C)=C\C=C\[C@H](C)[C@H](O)[C@@H](C)[C@@H](O)[C@@H](C)[C@H](OC(C)=O)[C@@H]1C` [Analog 29d], the MIC in assay [1] amounted to 0.04 µM (≈ 0.0376 µg/mL); in the assay on S. aureus NRS384, 0.00391 µM (≈ 0.00368 µg/mL).
Regarding `CO[C@H]1/C=C/O[C@@]2(C)Oc3c(C)c(O)c4c(=O)c(c5oc6cc(OCCN7CCN(C)CC7)cc(O)c6nc-5c4c3C2=O)NC(=O)/C(C)=C\C=C\[C@H](C)[C@H](O)[C@@H](C)[C@@H](O)[C@@H](C)[C@H](OC(C)=O)[C@@H]1C` [Analog 29e], the figures for the MIC (in assay [1]; with S. aureus NRS384) were 0.04 µM (≈ 0.0377 µg/mL) and 0.0156 µM (≈ 0.0147 µg/mL), respectively.
For `CO[C@H]1/C=C/O[C@@]2(C)Oc3c(C)c(O)c4c(=O)c(c5oc6cc(OCCOCCN(C)C)cc(O)c6nc-5c4c3C2=O)NC(=O)/C(C)=C\C=C\[C@H](C)[C@H](O)[C@@H](C)[C@@H](O)[C@@H](C)[C@H](OC(C)=O)[C@@H]1C` [Analog 29f] the same measures were 0.2 µM (≈ 0.186 µg/mL) and 0.0156 µM (≈ 0.0145 µg/mL).
Consider `CO[C@H]1/C=C/O[C@@]2(C)Oc3c(C)c(O)c4c(=O)c(c5oc6cc(OCCN7CCOCC7)cc(O)c6nc-5c4c3C2=O)NC(=O)/C(C)=C\C=C\[C@H](C)[C@H](O)[C@@H](C)[C@@H](O)[C@@H](C)[C@H](OC(C)=O)[C@@H]1C` [Analog 29g], for which the MIC in assay [1] came to 0.2 µM (≈ 0.186 µg/mL); in the assay with S. aureus NRS384 it was 0.00391 µM (≈ 0.00364 µg/mL).
For `CO[C@H]1/C=C/O[C@@]2(C)Oc3c(C)c(O)c4c(=O)c(c5oc6cc(OCCN(C)c7ccccn7)cc(O)c6nc-5c4c3C2=O)NC(=O)/C(C)=C\C=C\[C@H](C)[C@H](O)[C@@H](C)[C@@H](O)[C@@H](C)[C@H](OC(C)=O)[C@@H]1C` [Analog 29h], in that order: 1 µM (≈ 0.951 µg/mL) and 0.0625 µM (≈ 0.0594 µg/mL).
On to `CO[C@H]1/C=C/O[C@@]2(C)Oc3c(C)c(O)c4c(=O)c(c5oc6cc(OCCNC(C)=O)cc(O)c6nc-5c4c3C2=O)NC(=O)/C(C)=C\C=C\[C@H](C)[C@H](O)[C@@H](C)[C@@H](O)[C@@H](C)[C@H](OC(C)=O)[C@@H]1C` [Analog 29i], for which the MIC in assay [1] is 0.2 µM (≈ 0.18 µg/mL); in the assay on S. aureus NRS384, 0.00244 µM (≈ 0.0022 µg/mL).
